In patent publication US20190374468A1, “Liposomal Formulations for Allosteric AKT Inhibitors” (Merck Sharp & Dohme Corp., priority 2013, published 2019):

Key:
[1] = Aqueous solubility of Compound B; assay type: physicochemical
[2] = Visual evaluation of Compound B in the presence of sulfate salts; assay type: physicochemical; conditions: 1 mg/mL in pH 3.0 citrate buffer with 0.1-1.0 M (NH4)2SO4, 20° C.
Procedure: The behavior of Compound B in the presence of sulfate salts was further evaluated visually. Vials containing 1 mg/mL Compound B in pH 3.0 citrate buffer with 0.1 M, 0.25 M, 0.5 M, and 1.0 M, respectively, of (NH4)2SO4 were visually observed at 20° C. […] Solutions became increasingly more viscous with a white/opaque appearance with increasing amounts of ammonium sulfate.

solubility ([1]; 0.1 M carbonate buffer, aqueous buffer, pH 8.6, 0.1M Carbonate): 0.7 µg/mL
solubility ([1]; 0.1 M citrate buffer, aqueous buffer, pH 2.8, 0.1M Citrate): 10600 µg/mL
solubility ([1]; 0.1 M citrate buffer, aqueous buffer, pH 3.9, 0.1M Citrate): 170 µg/mL
solubility ([1]; 0.1 M citrate buffer, aqueous buffer, pH 5.0, 0.1M Citrate): 59 µg/mL
solubility ([1]; 0.1 M phosphate buffer, aqueous buffer, pH 5.6, 0.1M Phosphate): 140 µg/mL
solubility ([1]; 0.1 M phosphate buffer, aqueous buffer, pH 6.9, 0.1M Phosphate): 36 µg/mL
solubility ([1]; simulated gastric fluid, pH 2.1, 0.01N HCl): 4230 µg/mL
solubility ([1]; un-buffered aqueous medium, water, pH 4.1, Un-buffered): 7460 µg/mL
time to flocculation after addition of ammonium sulfate [2]: < 30 min
SMILES: Cl.NC1(c2ccc(-c3nc4ccn5c(=O)[nH]nc5c4cc3-c3ccccc3)cc2)CCC1 [Compound B, 8-[4-(1-aminocyclobutyl)phenyl]-9-phenyl[1,2,4]triazolo[3,4-f]-1,6-naphthyridin-3-ol]
